Patent US10266520B2, “Bisamidinium-based inhibitors for the treatment of myotonic dystrophy” (The Board of Trustees of the University of Illinois, priority 2014, dated 2019)

Target: MBNL1-(CUG)16 complex
Assay: EMSA inhibition of the MBNL1-(CUG)16 complex
Format: biochemical
Details: EMSA; KI=IC50×KD/[protein]total; read-out: KI, apparent inhibition constant, MBNL1-(CUG)16 complex
Procedure: FIG. 1A-B. Determination of inhibition constants, KI, by EMSA. (a) Representative gels showing the release of (CUG)16 at different ligand concentrations. Top band is the MBNL1-(CUG)16 complex, the bottom band is the free (CUG)16. (b) IC50 values were obtained by plotting the RNA fraction bound versus ligand concentrations. The apparent inhibition constant (KI) was calculated using the equation: KI=IC50×KD/[protein]total, where KD is the dissociation constant of the MBNL1-RNA complex and [protein] is at least 7-fold greater than the KD. Error bars represent standard deviation of three independent experiments.
An electrophoretic mobility shift assay (EMSA) was employed to determine the in vitro inhibition of MBNL1-rCUG^exp complex by monomer 1a and dimers 2a-b (FIG. 1). This study used (CUG)16, which can form a hairpin structure containing a maximum of 8 U-U mismatches. […] Likely, a 1:1 complex was formed. In this study, a truncated MBNL1 (1-272 amino acids) containing four zinc finger motifs of MBNL1 and a hexahistidine tag (C-terminus) was employed. This MBNL1 construct and the full-length MBNL1 have the similar affinities to rCUG repeats.
To determine the inhibition constant of bivalent ligands 2a and 2b, the MBNL1-(CUG)16 mixture, in which ca. 50% of the RNA is free, was incubated with various concentrations of ligand (FIG. 1a). The dimer concentrations were not raised to higher than 10 μM due to the aggregation on the gel at high concentrations. As the concentration of ligand increased, more RNA was released from the complex with MBNL protein. By fitting the plot of bound RNA fractions versus ligand concentrations with an appropriate equation, the IC50 value was determined (FIG. 1b).
(CUG)16 RNA was labeled with [γ-^32P]-ATP using T4 poly-nucleotide kinase (New England Biolabs). Labeled RNA was purified by phenol extraction and ethanol precipitation. Labeled RNA was heated at 95° C. for 5 min, then placed on ice for 10 min and diluted in protein binding buffer (175 mM NaCl, 5 mM MgCl2, 20 mM Tris-HCl (pH 8), 1.25 mM 2-mercapto-ethanol (BME), 12.5% glycerol, 2 mg/ml bovine serum albumin (BSA), 0.1 mg/ml heparin, 0.05% or 0.1% Triton X). For MBNL1-(CUG)16 binding study, MBNL1 was serially diluted by a factor of 3 in protein binding buffer. To each solution was added labeled RNA, so that the final concentration of RNA was 0.2 nM. The resulting mixtures were incubated at room temperature for 10 min and loaded onto a 6% polyacrylamide gel (80:1) at 4° C. The gel was run for 2 h at 180 V in Tris-Borate 0.5× buffer (pH 8.2-8.3). Gels were dried at 80° C. under high vacuum for 2 h, developed overnight in phosphor exposure cassette, and visualized on a Molecular Dynamics Storm PhosphorImager. The KD (1:1 stoichiometry assumption) was obtained by fitting the normalized fraction RNA bound versus the concentration of protein using the equation: Fraction RNA bound=Bmax×[MBNL1]total^h/(KD^h+MBNL1]total^h) where Bmax is maximum fraction RNA bound, h is a Hill slope. Protein concentration in reaction mixture was larger than 10-fold excess over RNA concentration. Data is illustrated in FIGS. 6 and 7.

`N=C(NCCCCNc1nc(N)nc(N)n1)c1ccc(C(=N)NCCCCNc2nc(N)nc(NCCCn3cc(CCNc4nc(N)nc(NCCCCNC(=N)c5ccc(C(=N)NCCCCNc6nc(N)nc(N)n6)cc5)n4)nn3)n2)cc1` [Compound 2b] was tested, and the Ki was 36 ± 12 nM.
